Our source for the EC50 and Emax values is patent US20260176320A1, “MODULATORS OF G-PROTEIN COUPLED RECEPTORS” (priority 2018, published 2026).

Where two headings read alike, the source gives them in different places. Square brackets hold non-standard residues; d marks the D form. Peptide text beside a SMILES is read from it. * marks the point of attachment. X1 = O=C(CSCC(=O)*)NCCN1C(=O)c2ccccc2C1=O; Aib = CC(C)(N)C(=O)O

In experiment [1] the target is T1, GIP-R (Homo sapiens, UniProt P48546).
T1 sequence (P48546 22-466): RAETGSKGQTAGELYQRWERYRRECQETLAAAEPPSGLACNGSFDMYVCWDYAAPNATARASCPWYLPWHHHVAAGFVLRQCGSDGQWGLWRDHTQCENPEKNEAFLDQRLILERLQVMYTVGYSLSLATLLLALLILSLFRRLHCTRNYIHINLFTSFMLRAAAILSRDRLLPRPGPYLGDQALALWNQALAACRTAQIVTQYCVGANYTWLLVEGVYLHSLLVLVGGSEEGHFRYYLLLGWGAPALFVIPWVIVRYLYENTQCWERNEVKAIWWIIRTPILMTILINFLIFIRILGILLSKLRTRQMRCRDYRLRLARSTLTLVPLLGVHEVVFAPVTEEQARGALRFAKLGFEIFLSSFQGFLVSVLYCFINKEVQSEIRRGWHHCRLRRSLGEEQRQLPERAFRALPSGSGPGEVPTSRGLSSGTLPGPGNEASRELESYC
The experiment can be described thus: HitHunter cAMP assay (GIP-R). The class given is cell-based. The following applies: cAMP; for Emax: read-out: (Emax) GIP-R. The method, then: Suspension cells were harvested and resuspended in 1×HBSS (+10 mM HEPES, 625 μM IBMX, 0.2% BSA) according to the following procedure: 5 μL of 2× cell suspension+1× antibody were added to each well, where the optimal cell density was 10,000 cells per well in a low volume 384-well plate. Agonist serial dilutions in a separate 384 well dilution plate in a 22-point series of 2× dilutions of agonist in DMSO were performed as follows. 80 μL of the highest concentration of Agonist/DMSO was added to well No. 1. 40 μL was removed from well No. 1 and added it to well No. 2, followed by gentle mixing. […] This process was repeated until well No. 22. Additional serial dilutions for additional agonists were set up in a similar manner. 50 nL of each 2× agonist serial dilution was added in duplicate to the designated agonist rows of the assay plate using the Labcyte ECHO. Assay plate was incubated for 30 minutes at room temperature. Following agonist incubation, 5 μL of cAMP Antibody Reagent was added to all wells. […] Plates were spun down briefly. Assay plate was incubated for 1 hour at room temperature in the dark for the immunocompetition reaction to occur. […] Plates were spun down briefly. Assay plate was incubated O/N at room temperature in the dark. Samples were read on Tecan i-control plate reader using luminescence mode with 300 ms integration time. Data analysis was performed using GraphPad Prism.

Experiment [2] addresses GLP-1R (Homo sapiens, UniProt P43220). The experiment can be described thus: HitHunter cAMP assay (GLP-1R). The class given is cell-based. The following applies: cAMP; for Emax: read-out: (Emax) GLP-1R. A digest of the protocol:
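Duplicate 22-point, 2-fold agonist titrations applied to receptor-expressing suspension cells in IBMX-containing HBSS; 30 min RT stimulation. Read: luminescent cAMP immunocompetition after O/N dark incubation.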
(cAMP levels reflect the balance of adenylyl cyclase and phosphodiesterase activity.)

The mark [3] stands for this setting: Table 3, read-out: EC50 GIP-R/nM.
[4] abbreviates: Table 3A, read-out: EC50 GIP-R/nM.
Setting [5] is: Table 3, read-out: EC50 GLP-1R/nM.
The mark [6] stands for this setting: Table 3A, read-out: EC50 GLP-1R/nM.

Chain of GLP-1R (P43220 24-463): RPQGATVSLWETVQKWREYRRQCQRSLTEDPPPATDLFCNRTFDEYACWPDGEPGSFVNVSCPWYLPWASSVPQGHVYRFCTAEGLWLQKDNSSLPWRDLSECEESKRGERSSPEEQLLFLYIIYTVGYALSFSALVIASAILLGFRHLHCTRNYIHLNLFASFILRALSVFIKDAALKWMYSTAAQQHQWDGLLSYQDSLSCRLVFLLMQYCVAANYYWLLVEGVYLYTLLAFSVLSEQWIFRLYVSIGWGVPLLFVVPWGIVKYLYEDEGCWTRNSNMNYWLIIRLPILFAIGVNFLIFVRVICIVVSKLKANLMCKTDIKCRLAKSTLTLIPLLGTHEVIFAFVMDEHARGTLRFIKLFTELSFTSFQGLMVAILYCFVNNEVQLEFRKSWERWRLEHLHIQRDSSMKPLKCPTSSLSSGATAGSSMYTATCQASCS

For orientation: Emax means the size of the effect at its maximum, as opposed to the concentration needed. Regarding `CCCCCCCCCCCCCCCC(=O)N[C@@H](CCC(=O)NCCCC[C@H](NC(=O)[C@H](CO)NC(=O)[C@@H]1CCCN1C(=O)[C@@H]1CCCN1C(=O)[C@@H]1CCCN1C(=O)[C@H](C)NC(=O)CNC(=O)[C@H](CO)NC(=O)[C@H](CO)NC(=O)[C@@H]1CCCN1C(=O)CNC(=O)CNC(=O)[C@H](C)NC(=O)[C@H](CC(C)C)NC(=O)[C@H](CC(C)C)NC(=O)[C@H](Cc1c[nH]c2ccccc12)NC(=O)[C@H](CC(N)=O)NC(=O)[C@@H](NC(=O)[C@H](Cc1ccccc1)NC(=O)[C@H](CCC(=O)O)NC(=O)C(C)(C)NC(=O)[C@H](C)NC(=O)[C@H](C)NC(=O)[C@H](CCC(N)=O)NC(=O)[C@H](CCCCN)NC(=O)[C@H](CC(=O)O)NC(=O)[C@H](CC(C)C)NC(=O)[C@H](Cc1ccc(O)cc1)NC(=O)[C@@H](NC(=O)[C@H](CO)NC(=O)[C@H](Cc1ccc(O)cc1)NC(=O)[C@H](CC(=O)O)NC(=O)[C@H](CO)NC(=O)[C@@H](NC(=O)[C@H](Cc1ccccc1)NC(=O)[C@@H](NC(=O)CNC(=O)[C@H](CCC(=O)O)NC(=O)CSCC(=O)NCCN1C(=O)SC(C)C1=O)[C@@H](C)O)[C@@H](C)O)[C@@H](C)CC)C(C)C)C(N)=O)C(=O)O` (mixture of isomers) [Compound 90], the EC50 in experiment [1] (EC50 GIP-R/nM, Table 3) was in the range of 1 to 10 nM; in experiment [1] (EC50 GIP-R/nM, Table 3A), 1 to 10 nM; in experiment [2] (EC50 GLP-1R/nM, Table 3), 1 to 10 nM; in experiment [2] (EC50 GLP-1R/nM, Table 3A), 1 to 10 nM. Moreover, the Emax in experiment [1] (Table 3) came out at 74%; in experiment [1] (Table 3A), 74%; in experiment [2] (Table 3), 108%; in experiment [2] (Table 3A) it was 108%.

As to `CC[C@H](C)[C@H](NC(=O)[C@H](CO)NC(=O)[C@H](Cc1ccc(O)cc1)NC(=O)[C@H](CC(=O)O)NC(=O)[C@H](CO)NC(=O)[C@@H](NC(=O)[C@H](Cc1ccccc1)NC(=O)[C@@H](NC(=O)CNC(=O)[C@H](CCC(=O)O)NC(=O)CSCC(=O)NCCN1C(=O)CCC1=O)[C@@H](C)O)[C@@H](C)O)C(=O)N[C@@H](Cc1ccc(O)cc1)C(=O)N[C@@H](CC(C)C)C(=O)N[C@@H](CC(=O)O)C(=O)N[C@@H](CCCCN)C(=O)N[C@@H](CCC(N)=O)C(=O)N[C@@H](C)C(=O)N[C@@H](C)C(=O)NC(C)(C)C(=O)N[C@@H](CCC(=O)O)C(=O)N[C@@H](Cc1ccccc1)C(=O)N[C@H](C(=O)N[C@@H](CC(N)=O)C(=O)N[C@@H](Cc1c[nH]c2ccccc12)C(=O)N[C@@H](CC(C)C)C(=O)N[C@@H](CC(C)C)C(=O)N[C@@H](C)C(=O)NCC(=O)NCC(=O)N1CCC[C@H]1C(=O)N[C@@H](CO)C(=O)N[C@@H](CO)C(=O)NCC(=O)N[C@@H](C)C(=O)N1CCC[C@H]1C(=O)N1CCC[C@H]1C(=O)N1CCC[C@H]1C(=O)N[C@@H](CO)C(=O)N[C@@H](CCCCN)C(N)=O)C(C)C` [Compound 117], the maximal effect (Emax) in experiment [1] (Table 3) was 70%; in experiment [1] (Table 3A), 70%; in experiment [2] (Table 3), 92%; in experiment [2] (Table 3A), 92%. Besides, the EC50 in experiment [1] (setting [3]) was in the range of 10 to 100 nM; in experiment [1] (setting [4]), 10 to 100 nM; in experiment [2] (setting [5]), 10 to 100 nM; in experiment [2] (setting [6]), 1 to 10 nM.

For the compound `CCCCCCCCCCCCCCCC(=O)N[C@@H](CCC(=O)NCCCC[C@H](NC(=O)[C@H](CO)NC(=O)[C@@H]1CCCN1C(=O)[C@@H]1CCCN1C(=O)[C@@H]1CCCN1C(=O)[C@H](C)NC(=O)CNC(=O)[C@H](CO)NC(=O)[C@H](CO)NC(=O)[C@@H]1CCCN1C(=O)CNC(=O)CNC(=O)[C@H](C)NC(=O)[C@H](CC(C)C)NC(=O)[C@H](CC(C)C)NC(=O)[C@H](Cc1c[nH]c2ccccc12)NC(=O)[C@H](CC(N)=O)NC(=O)[C@@H](NC(=O)[C@H](Cc1ccccc1)NC(=O)[C@H](CCC(=O)O)NC(=O)C(C)(C)NC(=O)[C@H](C)NC(=O)[C@H](C)NC(=O)[C@H](CCC(N)=O)NC(=O)[C@H](CCCCN)NC(=O)[C@H](CC(=O)O)NC(=O)[C@H](CC(C)C)NC(=O)[C@H](Cc1ccc(O)cc1)NC(=O)[C@@H](NC(=O)[C@H](CO)NC(=O)[C@H](Cc1ccc(O)cc1)NC(=O)[C@H](CC(=O)O)NC(=O)[C@H](CO)NC(=O)[C@@H](NC(=O)[C@H](Cc1ccccc1)NC(=O)[C@@H](NC(=O)CNC(=O)[C@H](CCC(=O)O)NC(=O)CSCC(=O)NCCN1C(=O)NC(C)(C)C1=O)[C@@H](C)O)[C@@H](C)O)[C@@H](C)CC)C(C)C)C(N)=O)C(=O)O` [Compound 87], the maximum response (Emax) in experiment [1] (Table 3) is 62%; in experiment [1] (Table 3A), 62%; in experiment [2] (Table 3) it was 89%; in experiment [2] (Table 3A), 89%. In addition, the EC50 in experiment [1] (setting [3]), in experiment [1] (setting [4]), in experiment [2] (setting [5]) and in experiment [2] (setting [6]) was 1 to 10 nM in each case.

On to `CC[C@H](C)[C@H](NC(=O)[C@H](CO)NC(=O)[C@H](Cc1ccc(O)cc1)NC(=O)[C@H](CC(=O)O)NC(=O)[C@H](CO)NC(=O)[C@@H](NC(=O)[C@H](Cc1ccccc1)NC(=O)[C@@H](NC(=O)CNC(=O)[C@H](CCC(=O)O)NC(=O)CSCC(=O)NCCN1C(=O)c2ccccc2C1=O)[C@@H](C)O)[C@@H](C)O)C(=O)N[C@@H](Cc1ccc(O)cc1)C(=O)N[C@@H](CC(C)C)C(=O)N[C@@H](CC(=O)O)C(=O)N[C@@H](CCC(=O)O)C(=O)N[C@@H](CCC(N)=O)C(=O)N[C@@H](C)C(=O)N[C@@H](C)C(=O)NC(C)(C)C(=O)N[C@@H](CCC(=O)O)C(=O)N[C@@H](Cc1ccccc1)C(=O)N[C@H](C(=O)N[C@@H](CC(N)=O)C(=O)N[C@@H](Cc1c[nH]c2ccccc12)C(=O)N[C@@H](CC(C)C)C(=O)N[C@@H](CC(C)C)C(=O)N[C@@H](C)C(=O)NCC(=O)NCC(=O)N1CCC[C@H]1C(=O)N[C@@H](CO)C(=O)N[C@@H](CO)C(=O)NCC(=O)N[C@@H](C)C(=O)N1CCC[C@H]1C(=O)N1CCC[C@H]1C(=O)N1CCC[C@H]1C(=O)N[C@@H](CO)C(=O)N[C@@H](CCCCN)C(N)=O)C(C)C` [Compound 150] (X1-EGTFTSDYSIYLDEQAA[Aib]EFVNWLLAGGPSSGAPPPSK-NH2), for which the Emax was in the range of 118 to 130% in experiment [1] (Table 3A), 95 to 113% in experiment [2] (Table 3) and 95 to 113% in experiment [2] (Table 3A). Further, the EC50 in experiment [1] (read-out: EC50 GIP-R/nM, Table 3) is under 1 nM; in experiment [1] (read-out: EC50 GIP-R/nM, Table 3A), under 1 nM; in experiment [2] (EC50 GLP-1R/nM, Table 3) it was 1 to 10 nM; in experiment [2] (EC50 GLP-1R/nM, Table 3A), 1 to 10 nM.

For the compound `CC[C@H](C)[C@H](NC(=O)[C@H](CO)NC(=O)[C@H](Cc1ccc(O)cc1)NC(=O)[C@H](CC(=O)O)NC(=O)[C@H](CO)NC(=O)[C@@H](NC(=O)[C@H](Cc1ccccc1)NC(=O)[C@@H](NC(=O)CNC(=O)[C@H](CCC(=O)O)NC(=O)CC(C)CC(=O)NCCN1C(=O)CSC1=O)[C@@H](C)O)[C@@H](C)O)C(=O)N[C@@H](Cc1ccc(O)cc1)C(=O)N[C@@H](CC(C)C)C(=O)N[C@@H](CC(=O)O)C(=O)N[C@@H](CCCCN)C(=O)N[C@@H](CCC(N)=O)C(=O)N[C@@H](C)C(=O)N[C@@H](C)C(=O)NC(C)(C)C(=O)N[C@@H](CCC(=O)O)C(=O)N[C@@H](Cc1ccccc1)C(=O)N[C@H](C(=O)N[C@@H](CC(N)=O)C(=O)N[C@@H](Cc1c[nH]c2ccccc12)C(=O)N[C@@H](CC(C)C)C(=O)N[C@@H](CC(C)C)C(=O)N[C@@H](C)C(=O)NCC(=O)NCC(=O)N1CCC[C@H]1C(=O)N[C@@H](CO)C(=O)N[C@@H](CO)C(=O)NCC(=O)N[C@@H](C)C(=O)N1CCC[C@H]1C(=O)N1CCC[C@H]1C(=O)N1CCC[C@H]1C(=O)N[C@@H](CO)C(=O)N[C@@H](CCCCN)C(N)=O)C(C)C` (mixture of isomers) [Compound 120], the EC50 in experiment [1] (setting [3]) was over 1000 nM; in experiment [1] (setting [4]) it was over 1000 nM; in experiment [2] (setting [5]), 1 to 10 nM; in experiment [2] (setting [6]), 1 to 10 nM. In addition, in experiment [1] (read-out: (Emax) GIP-R at 1 μM, Table 3, at 1 μM), the Emax at 1 µM turned out to be 6%. In addition, the maximal effect (Emax) in experiment [2] (Table 3) and in experiment [2] (Table 3A) was 91% in each case.
